Results from patent EP2338876A1, “Tamsulosin adipate for pharmaceutical use” (LEK Pharmaceuticals d.d., priority 2009, dated 2011).

Columns and labels:
Format in all cases: physicochemical
[1] = Solubility in lower alcohols compared with tamsulosin hydrochloride; settings: compared with commercially available tamsulosin hydrochloride
Description: The adipate forms of tamsulosin prepared according to the present invention have favourable solubility properties. […] This property could be an indicator for better interactions with less polar surfaces (e.g. lipid barriers) and allows more homogeneous preparation of pharmaceutical preparations in which tamsulosin should be homogenously mixed with lipophilic excipients (such as in preparation of transdermal dosage forms). The adipate anion has been shown physiologically acceptable. The tamsulosin adipate has therefore appropriate properties for smooth interaction with hydrophilic and lipophilic surfaces.

[2] = Solubility in water, relative between solid forms; settings: 60-100 ml of water per gram of the salt, room temperature; compared with anhydrous or amorphous tamsulosin adipate
Description: In another embodiment of the invention tamsulosin adipate dihydrate can be prepared also from water solutions from more soluble forms of tamsulosin adipate (anhydrous or amorphous). Depending on kinetic factors two polymorphs of tamsulosin adipate dihydrate can be obtained. In another embodiment tamsulosin adipate (anhydrous or amorphous) is dissolved in a small amount of water, preferably in 60-100 ml of water per gram of the salt, most preferably in 80-90 ml per gram, preferably at room temperature. Less soluble dihydrate spontaneously precipitates from the solution, yielding tamsulosin adipate dihydrate, characterized by the peaks at about 2θ= 10.2, 10.5, 13.5, 15.5, 16.3, 21.1, 21.9° 24.3, 25.2, 28.3 and 35.9° particularly characteristic peaks are 15.5, 21.9°, 28.3, and 35.9°.

[3] = Solid-state stability at ambient and at low relative humidity
Description: Tamsulosin adipate dihydrate from Example 9 (1.0 g), is stayed in an open dish in an airtight chamber at temperature of 25 °C and relative humidity of below 10 % (achieved by means of dry desiccant) for 3 days.

[4] = Solid-state stability at higher temperature
Description: Tamsulosin adipate dihydrate from Example 9 (1.0 g), is heated at 80 °C for 24 h to give a glassy solid which is crushed and homogenised.

Row | Compound | solubility in lower alcohols [1] | solubility in water relative to other forms [2] | stability in extremely dry conditions ([3]; below 20 % relative humidity, preferably below 10 %) | stability under normal ambient conditions ([3]; normal ambient conditions) | solid form after storage at low humidity (XRPD) ([3]; open dish, airtight chamber, 25 °C, relative humidity below 10 %, 3 days) | solid form after heating (XRPD) ([4]; 80 °C for 24 h) | stability at higher temperatures ([4]; preferably above 70 °C, most preferably above 80 °C)
1 | CCOc1ccccc1OCCN[C@H](C)Cc1ccc(OC)c(S(N)(=O)=O)c1 [Tamsulosin adipate, tamsulosin adipate] | more soluble in lower alcohols, than the commercially available tamsulosin hydrochloride | – | – | – | – | – | –
2 | CCOc1ccccc1OCCN[C@H](C)Cc1ccc(OC)c(S(N)(=O)=O)c1 [Tamsulosin adipate dihydrate, tamsulosin adipate dihydrate form A] | – | Less soluble | loses water | stable | amorphous material | amorphous material with traces of anhydrous crystalline form | loses water
